Assay results from PMC11671526, “β-caryophyllene sensitizes hepatocellular carcinoma cells to chemotherapeutics and inhibits cell malignancy through targeting MAPK signaling pathway” (Frontiers in Pharmacology, 2024).

System: HepG2 cells
Experiment: RNA-seq transcriptome analysis of differentially expressed genes
Format: cell-based, human
Details: BCP vs control HepG2
Experimental: The quality and concentration of RNA were examined by MOPS RNA electrophoresis and Eppendorf BioSpectrometer. The transcriptome analysis was performed by BGI-Wuhan China. The RNA-seq dataset of this study is accessible in the Gene Expression Omnibus (GEO) with an access number of GSE276099. The sequence library for each sample was prepared using the BGISEQ-500 platform with a 50-bp single-end (SE50) format. […]2.2.1) was used to align the clean reads to the reference genome and alignment of the clean reads to the reference genes was carried out using Bowtie2 (v2.4.5) ([Langmead and Salzberg, 2012]; [Kim et al., 2015]). Gene expression levels were calculated by RSEM (v1.3.1) ([Li and Dewey, 2011]). Analysis of differential gene expression was performed using edgeR in the Bioconductor software package ([Robinson et al., 2010]). Using a standard protocol, the RNA samples were also examined by reverse transcription and quantitative polymerase chain reaction (RT-qPCR). In brief, for reverse transcription, total RNA (1 μg) and gDNA wiper Mix were incubated at 42°C for 2 min. The samples were immediately incubated with a master mix containing 10 pmol/μL of poly (dT) primers at 37°C for 15 min and 85°C for 5 s. To detect the expression of specific genes by qPCR analysis, gene-specific primers (shown in Supplementary Table S1) were mixed with the ChamQ Universal SYBER qPCR Master Mix and the reaction was conducted using the Roche Lightcycler 480. The GAPDH value was used to normalize the results of each gene. The RNA-seq data of BCP-treated HepG2 cells were screened for DEGs. Gene symbols were turned into Enterz ID using the org.Hs.eg.db Bio-conductor R package. The cluster profiler (v4.6.2) package was used to perform the Kyoto Encyclopedia of Genes and Genomes (KEGG) and Gene Ontology (GO) enrichment analyses ([Wu et al., 2021]). Following the Transcript per million (TPM) data of the dataset, the line chart, and heatmap were plotted using ggplot2 and pheatmap R packages, respectively.

C=C1CC/C=C(\C)CC[C@@H]2[C@@H]1CC2(C)C [BCP, β-caryophyllene]
change EGLN3 (gene EGLN3, DEG direction): Down | logFC EHF (gene EHF, RNA-seq): -2.096 | change EHF (gene EHF, DEG direction): Down | logFC EPHX1 (gene EPHX1, RNA-seq): -0.6153 | change EPHX1 (gene EPHX1, DEG direction): Down | logFC ETNPPL (gene ETNPPL, RNA-seq): -2.349 | change ETNPPL (gene ETNPPL, DEG direction): Down | logFC EVA1A (gene EVA1A, RNA-seq): -3.085 | change EVA1A (gene EVA1A, DEG direction): Down | logFC F2RL1 (gene F2RL1, RNA-seq): -0.7544 | change F2RL1 (gene F2RL1, DEG direction): Down | logFC FAH (gene FAH, RNA-seq): 0.7875 | change FAH (gene FAH, DEG direction): Up | logFC FAM13C (gene FAM13C, RNA-seq): 0.699 | change FAM13C (gene FAM13C, DEG direction): Up | logFC FAM72C (gene FAM72C, RNA-seq): 1.971 | change FAM72C (gene FAM72C, DEG direction): Up | logFC FBXO2 (gene FBXO2, RNA-seq): -0.7473 | change FBXO2 (gene FBXO2, DEG direction): Down | logFC FBXO27 (gene FBXO27, RNA-seq): -1.235 | change FBXO27 (gene FBXO27, DEG direction): Down | logFC FBXO44 (gene FBXO44, RNA-seq): -0.6394 | change FBXO44 (gene FBXO44, DEG direction): Down | logFC FGFBP1 (gene FGFBP1, RNA-seq): -1.07 | change FGFBP1 (gene FGFBP1, DEG direction): Down | logFC FRMD3 (gene FRMD3, RNA-seq): -1.073 | change FRMD3 (gene FRMD3, DEG direction): Down | logFC FZD4 (gene FZD4, RNA-seq): -0.6196 | change FZD4 (gene FZD4, DEG direction): Down | logFC GALNT13 (gene GALNT13, RNA-seq): 1.877 | change GALNT13 (gene GALNT13, DEG direction): Up | logFC GALNTL6 (gene GALNTL6, RNA-seq): 1.303 | change GALNTL6 (gene GALNTL6, DEG direction): Up | logFC GBP2 (gene GBP2, RNA-seq): -1.229 | change GBP2 (gene GBP2, DEG direction): Down | logFC GIPR (gene GIPR, RNA-seq): -0.7811 | change GIPR (gene GIPR, DEG direction): Down | logFC GJB5 (gene GJB5, RNA-seq): -0.706 | change GJB5 (gene GJB5, DEG direction): Down | logFC GLIS3 (gene GLIS3, RNA-seq): 0.614 | change GLIS3 (gene GLIS3, DEG direction): Up | logFC GNAZ (gene GNAZ, RNA-seq): -0.722 | change GNAZ (gene GNAZ, DEG direction): Down | logFC GOLGA6L10 (gene GOLGA6L10, RNA-seq): 2.939 | change GOLGA6L10 (gene GOLGA6L10, DEG direction): Up | logFC GPER1 (gene GPER1, RNA-seq): -0.7995 | change GPER1 (gene GPER1, DEG direction): Down | logFC GPNMB (gene GPNMB, RNA-seq): 0.8482 | change GPNMB (gene GPNMB, DEG direction): Up | logFC GSDME (gene GSDME, RNA-seq): 0.7468 | change GSDME (gene GSDME, DEG direction): Up | logFC H1-2 (gene H1-2, RNA-seq): -0.7028 | change H1-2 (gene H1-2, DEG direction): Down | logFC H2AC6 (gene H2AC6, RNA-seq): -0.6896 | change H2AC6 (gene H2AC6, DEG direction): Down | logFC H2AC18 (gene H2AC18, RNA-seq): -0.6059 | change H2AC18 (gene H2AC18, DEG direction): Down | logFC H2BC5 (gene H2BC5, RNA-seq): -0.8919 | change H2BC5 (gene H2BC5, DEG direction): Down | logFC H2BC11 (gene H2BC11, RNA-seq): -0.8769 | change H2BC11 (gene H2BC11, DEG direction): Down | logFC H2BC12 (gene H2BC12, RNA-seq): -0.7141 | change H2BC12 (gene H2BC12, DEG direction): Down | logFC H2BC21 (gene H2BC21, RNA-seq): -0.7522 | change H2BC21 (gene H2BC21, DEG direction): Down | logFC H3C14 (gene H3C14, RNA-seq): -8.816 | change H3C14 (gene H3C14, DEG direction): Down | logFC H3C15 (gene H3C15, RNA-seq): 8.416 | change H3C15 (gene H3C15, DEG direction): Up | logFC HHLA2 (gene HHLA2, RNA-seq): -1.815 | change HHLA2 (gene HHLA2, DEG direction): Down | logFC HIC1 (gene HIC1, RNA-seq): -1.286 | change HIC1 (gene HIC1, DEG direction): Down | logFC HID1 (gene HID1, RNA-seq): -3.326 | change HID1 (gene HID1, DEG direction): Down | logFC HJURP (gene HJURP, RNA-seq): 0.601 | change HJURP (gene HJURP, DEG direction): Up | logFC HK1 (gene HK1, RNA-seq): -0.5879 | change HK1 (gene HK1, DEG direction): Down | logFC HMG20B (gene HMG20B, RNA-seq): 0.778 | change HMG20B (gene HMG20B, DEG direction): Up | logFC HMMR (gene HMMR, RNA-seq): 0.8153 | change HMMR (gene HMMR, DEG direction): Up | logFC HPDL (gene HPDL, RNA-seq): -0.6564 | change HPDL (gene HPDL, DEG direction): Down | logFC HSPA5 (gene HSPA5, RNA-seq): 0.6968 | change HSPA5 (gene HSPA5, DEG direction): Up | logFC IFI35 (gene IFI35, RNA-seq): 0.5837 | change IFI35 (gene IFI35, DEG direction): Up | logFC IFITM1 (gene IFITM1, RNA-seq): -1.457 | change IFITM1 (gene IFITM1, DEG direction): Down | logFC IL34 (gene IL34, RNA-seq): -0.7177 | change IL34 (gene IL34, DEG direction): Down | logFC IQGAP3 (gene IQGAP3, RNA-seq): 0.8425 | change IQGAP3 (gene IQGAP3, DEG direction): Up | logFC ITPR1 (gene ITPR1, RNA-seq): 0.8272 | change ITPR1 (gene ITPR1, DEG direction): Up | logFC KCNH3 (gene KCNH3, RNA-seq): -0.6893 | change KCNH3 (gene KCNH3, DEG direction): Down | logFC KCNJ18 (gene KCNJ18, RNA-seq): 0.8616 | change KCNJ18 (gene KCNJ18, DEG direction): Up | logFC KCNK3 (gene KCNK3, RNA-seq): -0.6699 | change KCNK3 (gene KCNK3, DEG direction): Down | logFC KIAA1614 (gene KIAA1614, RNA-seq): 0.6603 | change KIAA1614 (gene KIAA1614, DEG direction): Up | logFC KLHDC7B (gene KLHDC7B, RNA-seq): 0.8443 | change KLHDC7B (gene KLHDC7B, DEG direction): Up | logFC KLRG1 (gene KLRG1, RNA-seq): -1.335 | change KLRG1 (gene KLRG1, DEG direction): Down | logFC LCK (gene LCK, RNA-seq): -3.081 | change LCK (gene LCK, DEG direction): Down | logFC LFNG (gene LFNG, RNA-seq): -0.7084 | change LFNG (gene LFNG, DEG direction): Down | logFC LHFPL2 (gene LHFPL2, RNA-seq): -0.5801 | change LHFPL2 (gene LHFPL2, DEG direction): Down | logFC LIMS3 (gene LIMS3, RNA-seq): 8.319 | change LIMS3 (gene LIMS3, DEG direction): Up
